Data from patent publication US20230279002A1, “Polymorphs of Crystalline Forms of 3,10-dimethoxy-5,8,13,13a-tetrahydro-6H-isoquinolino[3,2-a]isoquinolin-9-yl 3-fluorobenzenesulfonate and Salts Thereof” (CVI Pharmaceuticals Limited, priority 2020, published 2023).
≈ marks a conversion by molar mass, not a printed value.

Experiments:
Assay type in all cases: physicochemical
[1] = Apparent solubility in organic solvents (visual); conditions: for solubility: thermodynamic from solid
Procedure: Solubility: 2a substance was equilibrated with organic solvents to visually test the apparent solubility. The experiment was terminated once or if the target of 20 mg/mL was achieved.

[2] = Crystallization from hot saturated solutions, solid form by XRPD; conditions: for Solid form: EtOH, XRPD
Procedure: Crystallization from hot saturated solutions: About 100 mg 2a was dissolved with minimal amount of solvent at about 60° C. The solution was filtrated and separated into two portions. One portion was put in ice bath and agitated till the end of the experiment; the other portion was cooled down naturally. The precipitates were collected on a filter, dried and analyzed by XRPD.

[3] = Solvent evaporation, solid form by XRPD
Procedure: Solvent evaporation: About 20 mg 2a was dissolved in organic solvents. The solution was filtrated and dried in the air. The obtained solid part from the evaporation process was analyzed by XRPD.

[4] = Precipitation by addition of anti-solvent, solid form by XRPD
Procedure: The precipitates were collected and analyzed by XRPD.
2a was dissolved in ACN or MeOH, and water or heptane was added as anti-solvent. […] The XRPD pattern of compound 2a (bottom) and compound 2a dissolved in ACN then precipitated with heptane (top) is shown in FIG. 6. The XRPD pattern of compound 2a (bottom trace) and compound 2a dissolved in MeOH then precipitated with heptane (top trace) or water (center trace) is shown in FIG. 7.

[5] = Equilibration with solvent at 25° C. and 50° C. (slurry), solid form by XRPD
Procedure: Equilibration with solvent at 25° C. and 50° C.: About 50 mg of 2a was equilibrated with 1 ml solvents at 25° C. and 50° C. After stirring for 1 day and 7 days, the suspensions were centrifuged. The solid part was collected and analyzed by XRPD, then dried in the air for 10 min and analyzed by XRPD. After equilibrium with solvent at 25° C. and 50° C. for 1 and 7 days, the crystal form was not changed. […] The XRPD spectra of the solid equilibrated with each solvent listed in Table 12, at 25° C. and 50° C., are shown overlaid that of undisturbed 2a in FIG. 8 through FIG. 14.

solubility ([1]; 50% EtOH (aq), aqueous with cosolvent or surfactant or cyclodextrin): < 990 µg/mL
Solubility (mg/ml) ([1]; ACN): 6.17~18.5 mg/ml
solubility ([1]; EtOH, organic solvent or mixture): 2100 to 3150 µg/mL (≈ 4.47 to 6.71 mM)
solubility ([1]; THF, organic solvent or mixture): < 1140 µg/mL
solubility ([1]; acetone, organic solvent or mixture): 2220 to 3330 µg/mL (≈ 4.73 to 7.09 mM)
solubility ([1]; acetonitrile, organic solvent or mixture, ACN): 6170 to 18500 µg/mL (≈ 13.1 to 39.4 mM)
solubility ([1]; ethyl acetate, organic solvent or mixture): < 1800 µg/mL
solubility ([1]; heptane, organic solvent or mixture): < 1430 µg/mL
solubility ([1]; methanol, organic solvent or mixture, MeOH): > 17000 µg/mL
solubility ([1]; water): < 1080 µg/mL
Solid form ([2]; quick (ice bath)): partially crystalline
Solid form ([2]; slow (cooled down naturally)): no crystal, failed
Solid form after crystallization from hot saturated solutions ([2]; dissolved at about 60° C., cooled): partially crystalline
Solid form after evaporation ([3]; ACN): Amorphous
Solid form after evaporation ([3]; Acetone): Amorphous
Solid form after evaporation ([3]; EtOH): Amorphous
Solid form after evaporation ([3]; MeOH): Amorphous
Crystal form after precipitation by anti-solvent ([4]; heptane as anti-solvent (ACN or MeOH solution)): not changed
Solid form ([4]; solvent ACN, anti-solvent Heptane (6 volumes)): Crystal, no change
Solid form ([4]; solvent ACN, anti-solvent Water (6 volumes)): No crystal, failed
Solid form ([4]; solvent MeOH, anti-solvent Heptane (3 volumes)): Crystal, no change
Solid form ([4]; solvent MeOH, anti-solvent Water (2 volumes)): Amorphous
Crystal form after precipitation by anti-solvent ([4]; water added to MeOH solution): transformed to amorphous
Crystal form after equilibration with solvent ([5]; 25° C. and 50° C., 1 and 7 days): not changed
Slurry solid form ([5]; 50% EtOH (aq), 25° C.-1 day): Crystal, no change
Slurry solid form ([5]; 50% EtOH (aq), 25° C.-7 day): Crystal, no change
Slurry solid form ([5]; 50% EtOH (aq), 50° C.-1 day): partially crystalline
Slurry solid form ([5]; ACN, 25° C.-1 day): Crystal, no change
Slurry solid form ([5]; ACN, 25° C.-7 day): Crystal, no change
Slurry solid form ([5]; ACN, 50° C.-1 day): Crystal, no change
Slurry solid form ([5]; Acetone, 25° C.-1 day): Crystal, no change
Slurry solid form ([5]; Acetone, 25° C.-7 day): Crystal, no change
Slurry solid form ([5]; Acetone, 50° C.-1 day): Crystal, no change
Slurry solid form ([5]; EtOAc, 25° C.-1 day): Crystal, no change
Slurry solid form ([5]; EtOAc, 25° C.-7 day): Crystal, no change
Slurry solid form ([5]; EtOAc, 50° C.-1 day): Crystal, no change
Slurry solid form ([5]; EtOH, 25° C.-1 day): Crystal, no change
Slurry solid form ([5]; EtOH, 25° C.-7 day): Crystal, no change
Slurry solid form ([5]; EtOH, 50° C.-1 day): Crystal, no change
Slurry solid form ([5]; IPA, 25° C.-1 day): Crystal, no change
Slurry solid form ([5]; IPA, 25° C.-7 day): Crystal, no change
Slurry solid form ([5]; MeOH, 25° C.-1 day): Crystal, no change
Slurry solid form ([5]; MeOH, 25° C.-7 day): Crystal, no change
Slurry solid form ([5]; MeOH, 50° C.-1 day): Clear solution
Slurry solid form ([5]; THF, 25° C.-1 day): Crystal, no change
Slurry solid form ([5]; THF, 25° C.-7 day): Crystal, no change
Slurry solid form ([5]; THF, 50° C.-1 day): Crystal, no change
Slurry solid form ([5]; Water, 25° C.-1 day): Crystal, no change
Slurry solid form ([5]; Water, 25° C.-7 day): Crystal, no change
Slurry solid form ([5]; Water, 50° C.-1 day): partially crystalline
SMILES: COc1ccc2c(c1)CCN1Cc3c(ccc(OC)c3OS(=O)(=O)c3cccc(F)c3)C[C@H]21 [Compound 2a]
